{"source": "patent US4758580A", "about": "“Inhibiting growth of tumors with certain substituted phenoxy dimethyl alkanoic acids, esters or salts” (Yamanouchi Pharmaceutical Co., Ltd., priority 1985, dated 1988)", "key": {"[1]": {"system": "melanoma BL-6", "test": "Inhibition of experimental metastasis (to the lung) of melanoma BL-6 in mice", "assay_type": "in vivo, male BDF1 /SLC mice", "details": "22th day", "procedure": "(b) Inhibition of experimental metastasis (to the lung) of melanoma BL-6 in mice\nBL-6 cancer cells, 5×10^4, were inoculated into the tail veins of male BDF1 /SLC mice (6 week age) of 6 mice each being grouped in one (13 mice for the control group). The test compounds were administered orally in a definite dose 24 hours after the inoculation. In order to see metastasis-inhibitory effect, on 22th day after the inoculation, the mice were anatomised to observe the metastasis to the lungs. The degree of metastasis was evaluated by the number of pulmonary nodules. [formula] T: Median number of pulmonary nodules of the administered group C: Median number of pulmonary nodules of the control group"}, "[2]": {"system": "Ehrlich solid tumor", "test": "Anti-tumor test against Ehrlich solid tumor", "assay_type": "in vivo, ddY/SLC mice", "procedure": "Ehrlich tumor cells, 2×10^6, on Day 7 after intraperitoneal transplantation to ddY/SLC mice were subcutaneously transplanted in the left abdomen of ddY/SLC mice (5 week age, male), 10 each grouped into one. The active component was intraperitoneally or orally administered in a definite dose 24 hours after the transplantation, according to the schedule shown in Table 1 (A), (B) or (C). An effect of inhibiting growth of tumor was compared, by measuring the long diameter and short diameter of the tumor on 14, 20 and 21 Days after the transplantation, calculating the tumor size (mm^2) and determining a tumor growth inhibition rate of the group administered with the active component to the control group according to the following equation:\nGrowth inhibition rate (%)=(C-T)/C×100\nT: means tumor size (mm^2) in the active component-administered group\nC: mean tumor size (mm^2) in the control group"}, "[3]": {"system": "MM-46 solid tumor", "test": "Test against mouse mammalian MM-46 solid tumor", "assay_type": "in vivo, C3 H/He/SLC mice", "details": "1-9 Days", "procedure": "(§1) MM-46 Tumor cells, 1×10^6, on Day 7 after intraperitoneal transplantation to C3 H/He/SLC mice were subcutaneously transplanted to the left abdomen of C3 H/He/SLC mice (5 week age, male) of 8 mice each being grouped in one (21 mice for the control group). The active component was orally administered in a definite dose 24 hours after the transplantation according to the schedule shown in Table 2. An effect of tumor growth inhibition was compared by measuring the long diameter and short diameter of the tumor on Days 14 and 21 after the transplantation, calculating the tumor size (mm^2) and determining a tumor growth inhibition rate of the active component-administered group to the control group."}, "[4]": {"system": "Meth A solid tumor", "test": "Anti-tumor test against methyl cholanthrene-induced Meth A solid tumor", "assay_type": "in vivo, Balb/C/SLC mice", "details": "1-8 Days", "procedure": "as §1, with “Meth A tumor” for “MM-46 Tumor”, “1.5×10^6,” for “1×10^6,”, “Balb/C/SLC” for “C3 H/He/SLC”, “(16” for “(21”, “3.” for “2.”, “15” for “14”"}, "[5]": {"details": "50 mg/kg oral, 1, 2, 3, 5, 6, 7, 8, 9 and 10 days"}, "[6]": {"details": "100 mg/kg oral, 1, 2, 3, 5, 6, 7, 8, 9 and 10 days"}, "[7]": {"details": "Day 14, 1.0 mg/kg i.p., Days 1, 2, 3, 5 & 6"}, "[8]": {"details": "Day 21, 1.0 mg/kg i.p., Days 1, 2, 3, 5 & 6"}, "[9]": {"details": "Day 14, 25 mg/kg i.p., Days 1, 2, 3, 5, 6, 7 & 9"}, "[10]": {"details": "Day 14, 50 mg/kg i.p., Days 1, 2, 3, 5, 6, 7 & 9"}, "[11]": {"details": "Day 14, 100 mg/kg i.p., Days 1, 2, 3, 5, 6, 7 & 9"}, "[12]": {"details": "Day 21, 25 mg/kg i.p., Days 1, 2, 3, 5, 6, 7 & 9"}, "[13]": {"details": "Day 21, 50 mg/kg i.p., Days 1, 2, 3, 5, 6, 7 & 9"}, "[14]": {"details": "Day 21, 100 mg/kg i.p., Days 1, 2, 3, 5, 6, 7 & 9"}, "[15]": {"details": "Day 14, 50 mg/kg i.p., Days 1, 2, 3, 4, 6, 7, 8, 9"}, "[16]": {"details": "Day 14, 100 mg/kg i.p., Days 1, 2, 3, 4, 6, 7, 8, 9"}, "[17]": {"details": "Day 21, 50 mg/kg i.p., Days 1, 2, 3, 4, 6, 7, 8, 9"}, "[18]": {"details": "Day 21, 100 mg/kg i.p., Days 1, 2, 3, 4, 6, 7, 8, 9"}}, "data": [{"compound": "O=c1[nH]c(=O)n(C2CCCO2)cc1F", "note": "(stereo not shown) [Futoraful, reference compound]", "values": [{"measurement": "Pulmonary metastasis-inhibition rate", "setting": "[1]; [5]", "value": 35.7, "unit": "%"}, {"measurement": "The number of pulmonary nodules, median", "setting": "[1]; [5]", "value": 13.5}, {"measurement": "The number of pulmonary nodules, range", "setting": "[1]; [5]", "value": "1-49"}, {"measurement": "Pulmonary metastasis-inhibition rate", "setting": "[1]; [6]", "value": 69.0, "unit": "%"}, {"measurement": "The number of pulmonary nodules, median", "setting": "[1]; [6]", "value": 6.5}, {"measurement": "The number of pulmonary nodules, range", "setting": "[1]; [6]", "value": "1-16"}]}, {"compound": "CO[C@@]12[C@H](COC(N)=O)C3=C(C(=O)C(C)=C(N)C3=O)N1C[C@@H]1N[C@@H]12", "note": "[Mitomycin, reference compound]", "values": [{"measurement": "Growth Inhibition Rate", "setting": "[2]; [7]", "value": 67.7, "unit": "%"}, {"measurement": "Size of Tumor", "setting": "[2]; [7]", "value": "75.6 ± 31.5", "unit": "mm^2"}, {"measurement": "Growth Inhibition Rate", "setting": "[2]; [8]", "value": 80.0, "unit": "%"}, {"measurement": "Size of Tumor", "setting": "[2]; [8]", "value": "106.8 ± 62.2", "unit": "mm^2"}]}, {"compound": "O=c1[nH]c(=O)n(C2CCCO2)cc1F", "note": "(stereo not shown) [Tetrahydrofuryl-5-fluorouracil, reference compound]", "values": [{"measurement": "Growth Inhibition Rate", "setting": "[3]; Day 14, 50 mg/kg p.o.", "value": 14.2, "unit": "%"}, {"measurement": "Size of Tumor", "setting": "[3]; Day 14, 50 mg/kg p.o.", "value": "216.0 ± 55.1", "unit": "mm^2"}, {"measurement": "Growth Inhibition Rate", "setting": "[3]; Day 14, 100 mg/kg p.o.", "value": 14.7, "unit": "%"}, {"measurement": "Size of Tumor", "setting": "[3]; Day 14, 100 mg/kg p.o.", "value": "214.8 ± 55.6", "unit": "mm^2"}, {"measurement": "Growth Inhibition Rate", "setting": "[3]; Day 21, 50 mg/kg p.o.", "value": 26.9, "unit": "%"}, {"measurement": "Size of Tumor", "setting": "[3]; Day 21, 50 mg/kg p.o.", "value": "247.0 ± 101.8", "unit": "mm^2"}, {"measurement": "Growth Inhibition Rate", "setting": "[3]; Day 21, 100 mg/kg p.o.", "value": 26.0, "unit": "%"}, {"measurement": "Size of Tumor", "setting": "[3]; Day 21, 100 mg/kg p.o.", "value": "250.1 ± 92.9", "unit": "mm^2"}, {"measurement": "Growth Inhibition Rate", "setting": "[4]; Day 15, 50 mg/kg p.o.", "value": 45.1, "unit": "%"}, {"measurement": "Size of Tumor", "setting": "[4]; Day 15, 50 mg/kg p.o.", "value": "123.4 ± 69.9", "unit": "mm^2"}, {"measurement": "Growth Inhibition Rate", "setting": "[4]; Day 15, 100 mg/kg p.o.", "value": 58.6, "unit": "%"}, {"measurement": "Size of Tumor", "setting": "[4]; Day 15, 100 mg/kg p.o.", "value": "93.1 ± 50.3", "unit": "mm^2"}, {"measurement": "Growth Inhibition Rate", "setting": "[4]; Day 21, 50 mg/kg p.o.", "value": 50.7, "unit": "%"}, {"measurement": "Size of Tumor", "setting": "[4]; Day 21, 50 mg/kg p.o.", "value": "235.8 ± 124.4", "unit": "mm^2"}, {"measurement": "Growth Inhibition Rate", "setting": "[4]; Day 21, 100 mg/kg p.o.", "value": 44.7, "unit": "%"}, {"measurement": "Size of Tumor", "setting": "[4]; Day 21, 100 mg/kg p.o.", "value": "264.4 ± 110.6", "unit": "mm^2"}]}, {"compound": "CCOC(=O)C(C)(C)CCCCCOc1ccc(OCCCCCn2ccnc2)cc1", "note": "[Compound C]", "values": [{"measurement": "Growth Inhibition Rate", "setting": "[2]; [9]", "value": 18.4, "unit": "%"}, {"measurement": "Size of Tumor", "setting": "[2]; [9]", "value": "191.1 ± 88.8", "unit": "mm^2"}, {"measurement": "Growth Inhibition Rate", "setting": "[2]; [10]", "value": 42.4, "unit": "%"}, {"measurement": "Size of Tumor", "setting": "[2]; [10]", "value": "135.0 ± 66.9", "unit": "mm^2"}, {"measurement": "Growth Inhibition Rate", "setting": "[2]; [11]", "value": 54.2, "unit": "%"}, {"measurement": "Size of Tumor", "setting": "[2]; [11]", "value": "107.3 ± 46.7", "unit": "mm^2"}, {"measurement": "Growth Inhibition Rate", "setting": "[2]; [12]", "value": 31.9, "unit": "%"}, {"measurement": "Size of Tumor", "setting": "[2]; [12]", "value": "363.1 ± 188.8", "unit": "mm^2"}, {"measurement": "Growth Inhibition Rate", "setting": "[2]; [13]", "value": 61.0, "unit": "%"}, {"measurement": "Size of Tumor", "setting": "[2]; [13]", "value": "207.9 ± 139.7", "unit": "mm^2"}, {"measurement": "Growth Inhibition Rate", "setting": "[2]; [14]", "value": 4.2, "unit": "%"}, {"measurement": "Size of Tumor", "setting": "[2]; [14]", "value": "190.7 ± 69.1", "unit": "mm^2"}]}, {"compound": "CCOC(=O)C(C)(C)CCCCOc1ccc(OCCCCCOc2ccccn2)cc1", "note": "[Compound J, ethyl 6-[p-[5-(2-pyridyloxy)pentyloxy)phenoxy]-2,2-dimethylhexanoate]", "values": [{"measurement": "Growth Inhibition Rate", "setting": "[2]; [15]", "value": 20.9, "unit": "%"}, {"measurement": "Size of Tumor", "setting": "[2]; [15]", "value": "201.7 ± 48.2", "unit": "mm^2"}, {"measurement": "Growth Inhibition Rate", "setting": "[2]; [16]", "value": 34.7, "unit": "%"}, {"measurement": "Size of Tumor", "setting": "[2]; [16]", "value": "166.5 ± 65.3", "unit": "mm^2"}, {"measurement": "Growth Inhibition Rate", "setting": "[2]; [17]", "value": 19.2, "unit": "%"}, {"measurement": "Size of Tumor", "setting": "[2]; [17]", "value": "344.7 ± 108.4", "unit": "mm^2"}, {"measurement": "Growth Inhibition Rate", "setting": "[2]; [18]", "value": 38.2, "unit": "%"}, {"measurement": "Size of Tumor", "setting": "[2]; [18]", "value": "263.5 ± 97.1", "unit": "mm^2"}]}, {"compound": "COC(=O)C(C)(C)CCCOc1ccc(OCCCOc2cccnc2)cc1", "note": "[Compound I, methyl 2,2-dimethyl-5-[p-[3-(3-pyridyloxy)propoxy]phenoxy]pentanoate]", "values": [{"measurement": "Growth Inhibition Rate", "setting": "[2]; [9]", "value": 29.6, "unit": "%"}, {"measurement": "Size of Tumor", "setting": "[2]; [9]", "value": "164.9 ± 96.2", "unit": "mm^2"}, {"measurement": "Growth Inhibition Rate", "setting": "[2]; [10]", "value": 26.2, "unit": "%"}, {"measurement": "Size of Tumor", "setting": "[2]; [10]", "value": "172.8 ± 82.9", "unit": "mm^2"}, {"measurement": "Growth Inhibition Rate", "setting": "[2]; [11]", "value": 36.5, "unit": "%"}, {"measurement": "Size of Tumor", "setting": "[2]; [11]", "value": "148.7 ± 66.8", "unit": "mm^2"}, {"measurement": "Growth Inhibition Rate", "setting": "[2]; [12]", "value": 36.9, "unit": "%"}, {"measurement": "Size of Tumor", "setting": "[2]; [12]", "value": "336.6 ± 160.0", "unit": "mm^2"}, {"measurement": "Growth Inhibition Rate", "setting": "[2]; [13]", "value": 30.7, "unit": "%"}, {"measurement": "Size of Tumor", "setting": "[2]; [13]", "value": "369.1 ± 203.5", "unit": "mm^2"}, {"measurement": "Growth Inhibition Rate", "setting": "[2]; [14]", "value": 45.6, "unit": "%"}, {"measurement": "Size of Tumor", "setting": "[2]; [14]", "value": "290.2 ± 115.5", "unit": "mm^2"}]}]}
